Test results from ChEMBL document CHEMBL1201862, “PubChem BioAssay data set” (2004).
The source made the active and inactive calls.

Key:
[1] = inhibitors of firefly luciferase expression or activity, dose response, H4 neuroglioma cells, luminescence (AID 1990); assay type: functional, cell-based
[2] = luciferase reporter signal reduction – luminescence, H4-C neuroglioblastoma cells, dose response (AID 2458); assay type: functional, cell-based;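 further: H4 neuroglioblastoma cells stably carrying a luciferase reporter gene fusion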
cells = assay type: functional, cell-based
[3] = Luminescence Cell-Based Dose Response HTS to Identify Inhibitors of 5'UTR Stem-Loop Driven Prion Protein mRNA Translation in H4 Neuroglioblastoma Cells. [Related pubchem assays: 1827 (Project Summary), 1813 (Primary HTS)]; assay type: functional
[4] = inhibitors of SNCA 5'UTR-driven reporter translation, confirmation, H4 neuroglioma cells, luminescence (AID 1988); assay type: functional, cell-based
[5] = inhibitors of SNCA 5'UTR-driven translation, confirmation, luminescence, H4 neuroglioblastoma cells, dose confirmation (AID 2454); assay type: functional, cell-based;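 further: H4 neuroglioblastoma cells carrying an alpha-synuclein 5'UTR luciferase reporter; potency for inhibition of the luciferase signal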
[6] = molecular target: Photoreceptor-specific nuclear receptor (Homo sapiens, UniProt Q9Y5X4); assay type: functional, cell-based;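 further: CHO-S cells with Gal4-NCOR and VP16-NR2E3 two-hybrid luciferase reporter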
Chain of Photoreceptor-specific nuclear receptor (Q9Y5X4 whole entry, the tested form may be a part): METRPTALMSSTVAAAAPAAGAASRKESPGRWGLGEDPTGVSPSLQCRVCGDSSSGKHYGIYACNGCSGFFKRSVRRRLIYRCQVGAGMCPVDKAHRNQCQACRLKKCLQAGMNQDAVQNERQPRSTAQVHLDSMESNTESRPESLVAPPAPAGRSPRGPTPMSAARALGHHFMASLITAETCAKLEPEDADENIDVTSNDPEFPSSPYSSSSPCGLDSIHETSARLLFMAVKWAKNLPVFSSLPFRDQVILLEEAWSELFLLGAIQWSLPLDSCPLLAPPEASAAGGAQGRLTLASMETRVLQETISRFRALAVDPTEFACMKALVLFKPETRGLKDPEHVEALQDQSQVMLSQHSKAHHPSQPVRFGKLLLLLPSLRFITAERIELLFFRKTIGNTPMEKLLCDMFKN

[7] = molecular target: Sphingosine 1-phosphate receptor 2 (Homo sapiens, UniProt O95136); assay: Dose Response Cell Based Assay for Agonists of the S1P2 Receptor of Purchased Analogues. [Related pubchem assays: 729, 843, 854, 736 ]; assay type: functional
Chain of Sphingosine 1-phosphate receptor 2 (O95136 whole entry): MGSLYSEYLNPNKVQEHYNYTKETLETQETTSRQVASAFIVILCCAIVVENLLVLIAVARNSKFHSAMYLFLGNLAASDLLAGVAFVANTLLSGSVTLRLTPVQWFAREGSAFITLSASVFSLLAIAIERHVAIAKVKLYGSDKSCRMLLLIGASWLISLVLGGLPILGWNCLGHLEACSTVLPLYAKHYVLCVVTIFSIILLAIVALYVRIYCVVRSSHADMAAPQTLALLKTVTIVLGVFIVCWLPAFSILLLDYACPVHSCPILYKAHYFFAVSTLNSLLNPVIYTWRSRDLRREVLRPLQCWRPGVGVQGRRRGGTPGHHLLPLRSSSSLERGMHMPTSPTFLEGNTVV

[8] = molecular target: Epstein-Barr nuclear antigen 1 (Epstein-Barr virus (strain B95-8) (HHV-4) (Human herpesvirus 4), UniProt P03211); assay: EBNA-1 inhibitors, dose response, biochemical, fluorescence polarization, 1536-well (AID 2381); set-up: species or system human gammaherpesvirus 4;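 further: fluorescence polarization of a Cy5 DNA probe bound by EBNA-1 protein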
Chain of Epstein-Barr nuclear antigen 1 (P03211 whole entry): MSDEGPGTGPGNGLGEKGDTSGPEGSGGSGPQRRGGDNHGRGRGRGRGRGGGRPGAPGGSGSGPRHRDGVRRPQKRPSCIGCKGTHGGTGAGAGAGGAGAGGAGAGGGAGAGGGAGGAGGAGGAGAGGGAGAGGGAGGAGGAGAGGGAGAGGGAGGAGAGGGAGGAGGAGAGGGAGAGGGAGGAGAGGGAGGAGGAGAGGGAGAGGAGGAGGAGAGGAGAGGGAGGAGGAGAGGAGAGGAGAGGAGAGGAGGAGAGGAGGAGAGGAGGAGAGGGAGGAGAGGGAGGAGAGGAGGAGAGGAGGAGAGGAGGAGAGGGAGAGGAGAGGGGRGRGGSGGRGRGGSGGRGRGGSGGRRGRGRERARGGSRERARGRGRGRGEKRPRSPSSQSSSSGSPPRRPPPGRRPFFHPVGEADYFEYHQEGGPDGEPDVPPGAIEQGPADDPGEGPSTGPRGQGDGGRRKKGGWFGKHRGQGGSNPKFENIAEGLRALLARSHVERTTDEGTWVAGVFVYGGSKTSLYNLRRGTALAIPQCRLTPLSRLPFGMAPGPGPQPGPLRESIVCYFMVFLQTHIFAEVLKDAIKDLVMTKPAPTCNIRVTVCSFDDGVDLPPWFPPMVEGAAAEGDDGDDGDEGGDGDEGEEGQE

[9] = molecular target: Lytic switch protein BZLF1 (Epstein-Barr virus (strain B95-8) (HHV-4) (Human herpesvirus 4), UniProt P03206); assay: EBV ZTA inhibitors, dose response, counter-screen for EBNA-1 inhibitor project, biochemical, fluorescence polarization, Epstein-Barr virus, 1536-well (AID 2377); set-up: species or system human gammaherpesvirus 4;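 further: fluorescence polarization of Cy5-labelled ZRE DNA probe bound by purified Zta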
Chain of Lytic switch protein BZLF1 (P03206 whole entry): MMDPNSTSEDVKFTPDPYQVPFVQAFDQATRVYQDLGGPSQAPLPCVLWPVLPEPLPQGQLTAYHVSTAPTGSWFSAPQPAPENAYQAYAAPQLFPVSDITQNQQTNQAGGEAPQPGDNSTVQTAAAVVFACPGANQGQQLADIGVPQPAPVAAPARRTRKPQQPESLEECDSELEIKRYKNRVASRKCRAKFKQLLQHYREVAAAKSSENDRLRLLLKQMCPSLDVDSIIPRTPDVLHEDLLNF

HeLa = assay: Cytotoxicity counterscreen assay for transcriptional activators of heat shock protein 70 (Hsp70). [Related pubchem assays: 1203, 1252 ]; assay type: functional; details: Homo sapiens;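 further: cells exposed to compound for 16 hours before readout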
Paired box protein Pax-8 = Paired box protein Pax-8 (Homo sapiens, UniProt Q06710); assay: inhibitors of PAX8-driven TPO luciferase reporter, dose response, RMG-I cells, cherry-pick (AID 687027); assay type: functional, cell-based;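 further: luciferase reporter driven by Pax8 target thyroperoxidase promoter measured by SteadyGlo luminescence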
Chain of Paired box protein Pax-8 (Q06710 whole entry): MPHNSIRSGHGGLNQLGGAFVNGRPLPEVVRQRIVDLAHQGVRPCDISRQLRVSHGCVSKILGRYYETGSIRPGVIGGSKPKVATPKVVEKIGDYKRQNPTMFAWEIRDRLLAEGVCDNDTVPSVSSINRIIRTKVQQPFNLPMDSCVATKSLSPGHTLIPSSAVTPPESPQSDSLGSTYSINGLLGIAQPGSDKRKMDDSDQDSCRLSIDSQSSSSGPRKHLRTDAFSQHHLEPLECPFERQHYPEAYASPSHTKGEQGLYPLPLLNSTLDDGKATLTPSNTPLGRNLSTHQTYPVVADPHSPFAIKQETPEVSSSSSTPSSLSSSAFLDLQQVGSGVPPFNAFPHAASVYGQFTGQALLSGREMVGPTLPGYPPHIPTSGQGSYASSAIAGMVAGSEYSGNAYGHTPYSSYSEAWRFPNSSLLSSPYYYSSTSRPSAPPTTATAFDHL

[10] = inhibitors of CMV-promoter luciferase reporter, dose response, counter-screen for Pax8 inhibitor project, cell-based, HEK293, luminescence, dry powder (AID 743020); assay type: functional
[11] = molecular target: T1, E3 ubiquitin-protein ligase XIAP (Homo sapiens, UniProt P98170); assay: Counter Screen using XIAP-Bir3 for Chemical Antagonists of Bir1/2 domains of IAP-family anti-apoptotic proteins. [Related pubchem assays (depositor defined):AID1018, AID1449, AID1514, AID1638, AID1749, AID1750, AID488957, AID488963]
T1 sequence (P98170 whole entry): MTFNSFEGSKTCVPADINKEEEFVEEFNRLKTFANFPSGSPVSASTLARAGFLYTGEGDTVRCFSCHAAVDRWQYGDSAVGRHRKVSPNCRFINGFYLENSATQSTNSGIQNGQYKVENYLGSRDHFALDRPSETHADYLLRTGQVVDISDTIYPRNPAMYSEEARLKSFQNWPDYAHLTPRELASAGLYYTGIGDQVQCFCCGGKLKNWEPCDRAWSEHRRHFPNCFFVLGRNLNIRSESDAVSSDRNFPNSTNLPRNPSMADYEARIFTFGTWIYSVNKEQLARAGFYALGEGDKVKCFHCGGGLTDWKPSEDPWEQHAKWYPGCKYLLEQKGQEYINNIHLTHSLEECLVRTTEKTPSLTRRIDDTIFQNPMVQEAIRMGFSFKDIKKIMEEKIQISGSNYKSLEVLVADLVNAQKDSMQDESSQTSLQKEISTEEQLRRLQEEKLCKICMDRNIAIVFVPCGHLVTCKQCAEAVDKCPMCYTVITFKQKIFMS

[12] = molecular target: T1, E3 ubiquitin-protein ligase XIAP; assay: XIAP antagonists, biochemical, IAP family, fluorescence polarization (AID 1018); assay type: functional
Mucolipin-3 = Mucolipin-3 (Homo sapiens, UniProt Q8TDD5); assay: Dose response cell-based high-throughput screening assay for agonists of the transient receptor potential channel ML3 (TRPML3). [Related pubchem assays: 1526, 1424, 1448 ]; assay type: functional
Chain of Mucolipin-3 (Q8TDD5 whole entry): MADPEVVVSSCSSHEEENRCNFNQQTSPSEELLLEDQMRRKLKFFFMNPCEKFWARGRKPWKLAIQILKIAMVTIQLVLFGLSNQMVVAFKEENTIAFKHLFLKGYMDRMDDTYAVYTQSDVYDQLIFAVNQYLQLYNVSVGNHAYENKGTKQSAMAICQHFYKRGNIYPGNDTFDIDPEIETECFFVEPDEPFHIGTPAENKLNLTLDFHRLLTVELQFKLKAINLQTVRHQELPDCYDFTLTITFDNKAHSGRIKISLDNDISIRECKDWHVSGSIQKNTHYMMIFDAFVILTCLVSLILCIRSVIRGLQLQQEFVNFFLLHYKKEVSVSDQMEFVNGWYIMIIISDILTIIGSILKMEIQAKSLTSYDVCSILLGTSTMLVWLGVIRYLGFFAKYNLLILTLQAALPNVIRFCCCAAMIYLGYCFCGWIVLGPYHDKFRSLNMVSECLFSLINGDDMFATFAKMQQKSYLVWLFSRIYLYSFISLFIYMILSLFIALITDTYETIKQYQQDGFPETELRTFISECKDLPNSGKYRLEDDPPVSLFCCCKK

Ion channel NompC = Ion channel NompC (Danio rerio, UniProt Q7T1G6); assay: Fluorescence counterscreen assay for TRPML3 agonists: dose response cell-based high-throughput screening assay to identify agonists of the transient receptor potential channel N1 (TRPN1). [Related pubchem assays: 1526, 1424, 1448 ]; assay type: functional
Chain of Ion channel NompC (Q7T1G6 whole entry): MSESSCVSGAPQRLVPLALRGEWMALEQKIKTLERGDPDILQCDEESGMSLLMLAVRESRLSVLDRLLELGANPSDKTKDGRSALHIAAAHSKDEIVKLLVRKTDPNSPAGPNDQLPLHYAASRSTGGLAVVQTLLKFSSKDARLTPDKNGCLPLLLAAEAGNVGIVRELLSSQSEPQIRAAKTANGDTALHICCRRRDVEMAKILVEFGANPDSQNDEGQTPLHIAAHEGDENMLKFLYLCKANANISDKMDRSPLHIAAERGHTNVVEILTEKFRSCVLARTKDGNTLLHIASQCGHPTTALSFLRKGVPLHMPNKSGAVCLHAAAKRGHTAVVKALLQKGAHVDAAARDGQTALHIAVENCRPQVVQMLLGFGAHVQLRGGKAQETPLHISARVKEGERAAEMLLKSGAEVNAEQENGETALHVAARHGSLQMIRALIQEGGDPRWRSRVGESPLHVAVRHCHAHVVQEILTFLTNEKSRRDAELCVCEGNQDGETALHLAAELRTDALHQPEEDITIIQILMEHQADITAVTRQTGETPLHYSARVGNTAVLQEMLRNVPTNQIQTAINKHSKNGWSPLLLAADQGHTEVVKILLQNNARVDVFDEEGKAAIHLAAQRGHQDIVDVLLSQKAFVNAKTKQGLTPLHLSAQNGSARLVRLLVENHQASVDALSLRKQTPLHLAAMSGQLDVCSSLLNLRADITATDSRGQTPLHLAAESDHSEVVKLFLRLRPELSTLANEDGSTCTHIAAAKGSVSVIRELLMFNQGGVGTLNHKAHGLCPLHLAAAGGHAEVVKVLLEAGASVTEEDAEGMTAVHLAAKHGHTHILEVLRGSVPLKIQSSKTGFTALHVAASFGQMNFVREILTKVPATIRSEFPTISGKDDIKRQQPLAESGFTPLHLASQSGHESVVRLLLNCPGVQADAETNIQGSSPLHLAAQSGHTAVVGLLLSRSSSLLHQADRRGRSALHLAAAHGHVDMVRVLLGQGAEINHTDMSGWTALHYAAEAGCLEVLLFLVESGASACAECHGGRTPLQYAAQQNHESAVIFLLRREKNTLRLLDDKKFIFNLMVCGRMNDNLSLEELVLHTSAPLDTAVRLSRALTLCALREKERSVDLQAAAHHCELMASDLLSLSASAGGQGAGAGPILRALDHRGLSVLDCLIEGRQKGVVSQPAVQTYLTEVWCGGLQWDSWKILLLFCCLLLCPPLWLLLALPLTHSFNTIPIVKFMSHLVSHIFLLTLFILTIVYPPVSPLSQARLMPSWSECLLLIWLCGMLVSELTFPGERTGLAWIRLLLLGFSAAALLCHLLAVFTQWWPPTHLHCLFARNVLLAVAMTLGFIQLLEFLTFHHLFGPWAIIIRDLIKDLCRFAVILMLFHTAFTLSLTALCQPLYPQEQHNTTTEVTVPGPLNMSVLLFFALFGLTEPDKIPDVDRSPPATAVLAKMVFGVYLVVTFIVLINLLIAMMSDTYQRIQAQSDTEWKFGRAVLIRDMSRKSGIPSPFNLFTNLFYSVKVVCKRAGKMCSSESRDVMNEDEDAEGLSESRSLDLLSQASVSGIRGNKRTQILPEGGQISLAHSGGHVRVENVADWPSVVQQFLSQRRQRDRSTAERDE

In the case of Cc1ccsc1C(=O)OCC(=O)c1cc(C)n(CC2CCCO2)c1C (configuration not stated), the EC50 [1] is reported as 8.04 µM (active), the EC50 [2] is reported as 0.9 µM (active) and the EC50 (cells) is reported as 3.3 µM (active). For the same compound, the EC50 [3] was 0.325 µM (active), the EC50 [4] was < 0.1 µM (active) and the EC50 [5] was 0.322 µM (active). For the same compound, the IC50 [6] was 6.9 µM (active).
With COc1ccc(C(N)=O)c(OCC(=O)c2cc(C)n(Cc3ccccc3)c2C)c1 the EC50 [7] was > 30 µM (not active).
In the case of COc1ccc(CN=C(S)N2CCN(S(=O)(=O)c3cccc(F)c3)CC2)cc1, the IC50 [8] is reported as 5.94 µM (active) and the IC50 [9] is reported as > 111 µM (not active).
For CCCC(=O)N1CCN(c2ccc(NC(=O)c3ccc([N+](=O)[O-])o3)cc2)CC1, the CC50 (HeLa) was 6.29 µM (active), the AC50 (Paired box protein Pax-8) was 5.17 µM (active) and the AC50 [10] was 19.9 µM (active).
For COc1ccc(C(=O)C2=C(O)C(=O)N(CC3CCCO3)C2c2cccc(OC)c2)cc1 (configuration not stated), the IC50 [11] was > 100 µM (inactive) and the IC50 [12] was > 100 µM (not active).
With CN(C1CCCCC1)S(=O)(=O)c1cccc(C(=O)OCC(=O)NC2CCCc3ccccc32)c1 (configuration not stated) the EC50 (Mucolipin-3) was 2.86 µM (active) and the EC50 (Ion channel NompC) was > 29.9 µM (not active).
